Laboratory results reported in patent publication US20210403567A1, “METHODS OF TREATING CERVICAL CANCER BY ADMINISTERING A PD-1 INHIBITOR” (priority 2020, published 2021).
“And” between values parts separate entries of the source, which are not always exact repeats. Equal values may be shown once.

Tested on: recurrent or metastatic cervical cancer that has progressed after platinum-containing chemotherapy
Assay: Phase 3 trial, cemiplimab 350 mg IV Q3W versus investigator's choice (IC) chemotherapy: OS, PFS, ORR, DOR;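 further: randomized trial arms, OS counted from randomization until death with censoring at last contact, PFS until first RECIST 1.1 progression or death from any cause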
Details: for OS Hazard Ratio (95% CI): AC (non-SCC); for OS Hazard Ratio (95% CI) / OS subgroup analysis, Hazard Ratio (95% CI) / PFS HR (95% CI): cemiplimab vs chemotherapy; for Median OS (95% CI) / Median PFS (95% CI): Kaplan-Meier; for PFS Hazard Ratio (95% CI): cemiplimab vs chemo; for reduction in the risk of disease progression: vs chemotherapy
[1] = AC, cemiplimab N=65, chemo N=66
[2] = Example 3 analysis, total population
[3] = Example 4 updated, AC, listed as cemiplimab
[4] = Example 4 updated, SCC, listed as cemiplimab
[5] = Example 4 updated, overall population
[6] = Example 4 updated, overall population, listed as cemiplimab

Substance: cemiplimab
- ORR (AC): 12.3% and 12%
- OS Hazard Ratio (95% CI): 0.556 (0.363, 0.853) and 0.56 (0.36-0.85)
- OS Hazard Ratio (95% CI) (listed as cemiplimab): 0.56
- Estimated Event-Free Probability (PFS), % (95% CI) (AC, 6 months): 30.1 (19.3, 41.6) %
- Estimated Survival Probability, % (95% CI) (AC, 6 months): 69.6 (56.5, 79.4) %
- Estimated Event-Free Probability (PFS), % (95% CI) (AC, 12 months): 10.6 (4.4, 20.0) %
- Estimated Survival Probability, % (95% CI) (AC, 12 months): 57.4 (43.9, 68.7) %
- Estimated Event-Free Probability (PFS), % (95% CI) (AC, 18 months): 8.5 (3.0, 17.6) %
- Estimated Survival Probability, % (95% CI) (AC, 18 months): 34.2 (21.5, 47.3) %
- Estimated Event-Free Probability (PFS), % (95% CI) (AC, 24 months): 8.5 (3.0, 17.6) %
- Estimated Survival Probability, % (95% CI) (AC, 24 months): 19.5 (8.4, 34.1) %
- Median OS (95% CI) (AC): 13.3 (9.6, 17.6) months
- Median OS (95% CI) (AC, listed as cemiplimab): 13.3 months
- Best Overall Tumor Response: Complete Response (CR) [1]: 3 (4.6%) n (%)
- Best Overall Tumor Response: Not Evaluable (NE) [1]: 6 (9.2%) n (%)
- Best Overall Tumor Response: Partial Response (PR) [1]: 5 (7.7%) n (%)
- Best Overall Tumor Response: Progressive Disease (PD) [1]: 19 (29.2%) n (%)
- OS: Number of censored patients [1]: 24 (36.9%) n (%)
- Objective Response Rate (ORR: CR + PR) [1]: 8 (12.3%) n (%)
- Reduced risk of death (vs. chemotherapy) (AC, post-hoc): 44%
- Reduced risk of death (vs. chemotherapy) (AC, post-hoc, listed as cemiplimab): 44%
- OS subgroup analysis, Hazard Ratio (95% CI) (ECOG status per IWRS: 0): 0.59 (0.43-0.82)
- OS subgroup analysis, Hazard Ratio (95% CI) (ECOG status per IWRS: 1): 0.74 (0.57-0.96)
- PFS: Number of events (Example 3 analysis, Adeno, cemiplimab N=65, chemo N=66): 55 (84.6%) n (%)
- PFS Hazard Ratio (95% CI) (Example 3 analysis, Adeno): 0.849 (0.574, 1.255)
- Median PFS in month (95% CI) (Example 3 analysis, SCC): 2.8 (2.6, 4.0) month
- PFS: Number of censored patients (Example 3 analysis, SCC): 53 (22.2%) n (%)
- PFS: Number of deaths (Example 3 analysis, SCC): 25 (10.5%) n (%)
- PFS: Progressive Disease (Example 3 analysis, SCC): 161 (67.4%) n (%)
- Reduced risk of progression (vs. chemotherapy) (Example 3 analysis, SCC): 31%
- PFS Hazard Ratio (95% CI) (Example 3 analysis, SCC): 0.686 (0.559, 0.843)
- Median PFS in month (95% CI) [2]: 2.8 (2.6, 3.9) month
- PFS: Number of censored patients [2]: 63 (20.7%) n (%)
- PFS: Number of deaths [2]: 31 (10.2%) n (%)
- PFS: Progressive Disease [2]: 210 (69.1%) n (%)
- Reduced risk of progression (vs. chemotherapy) [2]: 28%
- PFS: Number of events (Example 3 analysis, total population, N=304 per arm): 241 (79.3%) n (%)
- PFS Hazard Ratio (95% CI) [2]: 0.719 (0.599, 0.862)
- PFS: Number of censored patients (Example 4 updated, AC): 9 (13.8%) n (%)
- PFS: Number of deaths (Example 4 updated, AC): 7 (10.8%) n (%)
- PFS: Progressive Disease (Example 4 updated, AC): 49 (75.4%) n (%)
- reduction in the risk of disease progression (Example 4 updated, AC, post-hoc): 9%
- Median PFS (95% CI) (Example 4 updated, AC): 2.7 (2.3, 4.0) months
- Median PFS (95% CI) [3]: 2.7 months
- PFS: Number of events (Example 4 updated, AC, cemiplimab N=65, chemo N=66): 56 (86.2%) n (%)
- PFS HR (95% CI) (Example 4 updated, AC): 0.912 (0.623, 1.335)
- PFS HR (95% CI) [3]: 0.91
- PFS: Number of censored patients (Example 4 updated, SCC): 42 (17.6%) n (%)
- PFS: Number of deaths (Example 4 updated, SCC): 34 (14.2%) n (%)
- PFS: Progressive Disease (Example 4 updated, SCC): 163 (68.2%) n (%)
- Median PFS (95% CI) (Example 4 updated, SCC): 2.8 (2.6, 4.0) months
- Median PFS (95% CI) [4]: 2.8 months
- PFS HR (95% CI) (Example 4 updated, SCC): 0.705 (0.578, 0.861)
- PFS HR (95% CI) [4]: 0.71
- reduction in the risk of disease progression (Example 4 updated, SCC): 29%
- PFS: Number of censored patients [5]: 51(16.8%) n (%)
- PFS: Number of deaths [5]: 41(13.5%) n (%)
- PFS: Progressive Disease [5]: 212 (69.7%) n (%)
- Median PFS (95% CI) [5]: 2.8 (2.6, 3.9) months
- Median PFS (95% CI) [6]: 2.8 months
- PFS: Number of events (Example 4 updated, overall population, N=304 per arm): 253 (83.2%) n (%)
- PFS HR (95% CI) [5]: 0.745 (0.625, 0.890)
- PFS HR (95% CI) [6]: 0.75
- reduction in the risk of disease progression [5]: 25%
- OS subgroup analysis, Hazard Ratio (95% CI) (Geographic region: Asia): 0.65 (0.44-0.96)
